Source: publication PMC9403976, “Elucidating the path to Plasmodium prolyl-tRNA synthetase inhibitors that overcome halofuginone resistance” (Nature Communications, 2022)
“And” between values parts separate entries of the source, which are not always exact repeats. Equal entries are not always repeated. Where two headings read alike, the source gives them in different places.

Columns and labels:
[1] = target: HsProRS (Homo sapiens, UniProt P07814); assay: TR-FRET ligand displacement assay with tracer MAT379 (CoraFluor-1-Halo and anti-His6 antibody formats); assay type: binding; set-up: made in house; host or cells: E. coli SoluBL-21; conditions: for TR-FRET dose-response, normalized signal (SI Fig 11): individual replicates
HsProRS, sequence (P07814 996-1512): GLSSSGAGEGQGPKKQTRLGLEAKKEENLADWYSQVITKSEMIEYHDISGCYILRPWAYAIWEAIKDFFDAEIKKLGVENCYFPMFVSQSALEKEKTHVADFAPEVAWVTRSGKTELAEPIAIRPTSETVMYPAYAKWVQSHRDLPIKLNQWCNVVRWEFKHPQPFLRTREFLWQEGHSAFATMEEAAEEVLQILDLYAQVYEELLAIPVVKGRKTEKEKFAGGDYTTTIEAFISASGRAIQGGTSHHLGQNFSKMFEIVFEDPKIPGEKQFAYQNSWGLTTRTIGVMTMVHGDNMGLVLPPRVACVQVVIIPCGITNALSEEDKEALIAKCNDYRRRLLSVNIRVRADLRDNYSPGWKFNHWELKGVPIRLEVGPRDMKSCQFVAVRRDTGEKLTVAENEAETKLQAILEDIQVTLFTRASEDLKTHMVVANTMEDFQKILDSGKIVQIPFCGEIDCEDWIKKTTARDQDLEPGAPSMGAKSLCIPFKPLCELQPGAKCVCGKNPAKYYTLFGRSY

[2] = tested on: P. falciparum Dd2-2D4; assay: P. falciparum asexual blood stage (ABS) growth assay, SYBR Green, 72 h, wild-type parasites; assay type: cell-based, Plasmodium falciparum; conditions: for ABS growth dose-response, normalized signal (Replicates 1-3) / parasite growth, dose-response point: Dd2-2D4; for parasite growth, dose-response point: single replicates
[3] = tested on: HFGR-I P. falciparum (elevated proline homeostasis and PfcProRS^L482H); assay: P. falciparum ABS growth assay, SYBR Green, 72 h, HFGR-I parasites; assay type: cell-based, Plasmodium falciparum; conditions: HFGR-I, single replicates
Summary of the method: (§1)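 EC50 came from SYBR Green 1 fluorescence measured 72 h after dosing in triplicate dose-response. Dihydroartemisinin at 10 μM set full kill and untreated wells set full growth. Cultures of the Dd2 lines were seeded at 1% hematocrit and 1% parasitemia in Albumax-supplemented RPMI.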

[4] = target: T1, PfcProRS (Plasmodium falciparum, UniProt Q8I5R7); assay type: binding; conditions: for dose-response signal (normalized), SI Fig 8: single replicates
T1 construct: made in house; host or cells: E. coli SoluBL-21
T1 sequence (Q8I5R7 249-746): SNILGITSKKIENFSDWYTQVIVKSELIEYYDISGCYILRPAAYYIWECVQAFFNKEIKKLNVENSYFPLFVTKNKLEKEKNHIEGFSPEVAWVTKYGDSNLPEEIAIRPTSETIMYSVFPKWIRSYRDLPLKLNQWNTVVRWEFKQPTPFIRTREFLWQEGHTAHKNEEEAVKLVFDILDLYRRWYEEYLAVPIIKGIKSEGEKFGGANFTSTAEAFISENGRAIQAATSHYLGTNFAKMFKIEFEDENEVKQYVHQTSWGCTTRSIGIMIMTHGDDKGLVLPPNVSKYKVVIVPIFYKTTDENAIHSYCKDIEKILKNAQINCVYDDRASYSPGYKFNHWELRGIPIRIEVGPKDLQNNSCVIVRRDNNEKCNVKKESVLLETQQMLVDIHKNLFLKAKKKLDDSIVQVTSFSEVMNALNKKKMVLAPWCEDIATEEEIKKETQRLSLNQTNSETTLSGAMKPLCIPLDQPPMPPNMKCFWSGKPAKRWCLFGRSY

[5] = tested on: halofuginone-induced P. falciparum (elevated proline homeostasis); assay: P. falciparum ABS growth assay, SYBR Green, 72 h, halofuginone-induced parasites; assay type: cell-based, Plasmodium falciparum; conditions: for parasite growth, dose-response point: Halofuginone-Induced (HFG-Induced), single replicates
Summary of the method: as §1

CC1(C(=O)Nc2nccnc2C(=O)NC2Cc3ccccc3C2)CCCCC1 [compound 4]
Kd ([1]; HsProRS (KD [nM]) −, absence of substrates, 250 nM MAT379): 221 nM | Kd ([1]; HsProRS - best Kd, SI Fig 16a, values on -log scale): 2.55 nM | normalized TR-FRET ligand displacement signal, dose-response replicates (SI Fig 6) ([1]; Log[inhibitor] (M) -5.000): 4.53E-02 and 6.57E-02 and 9.85E-02 | TR-FRET dose-response, normalized signal (SI Fig 11) ([1]; Log[inhibitor] (M) -5.000): 6.99E-03 and -1.87E-02 and 8.97E-03 | normalized TR-FRET ligand displacement signal, dose-response replicates (SI Fig 6) ([1]; Log[inhibitor] (M) -5.301): 8.38E-02 and 1.09E-01 and 1.45E-01 | TR-FRET dose-response, normalized signal (SI Fig 11) ([1]; Log[inhibitor] (M) -5.301): 5.00E-02 and 2.79E-02 and 4.24E-02 | normalized TR-FRET ligand displacement signal, dose-response replicates (SI Fig 6) ([1]; Log[inhibitor] (M) -5.601): 2.80E-01 and 1.33E-01 and 2.62E-01 | TR-FRET dose-response, normalized signal (SI Fig 11) ([1]; Log[inhibitor] (M) -5.601): 1.01E-01 and 8.93E-02 and 1.03E-01 | normalized TR-FRET ligand displacement signal, dose-response replicates (SI Fig 6) ([1]; Log[inhibitor] (M) -5.904): 4.58E-01 and 3.89E-01 and 4.73E-01 | TR-FRET dose-response, normalized signal (SI Fig 11) ([1]; Log[inhibitor] (M) -5.904): 1.64E-01 and 2.16E-01 and 1.95E-01 | normalized TR-FRET ligand displacement signal, dose-response replicates (SI Fig 6) ([1]; Log[inhibitor] (M) -6.208): 6.24E-01 and 6.52E-01 and 5.78E-01 | TR-FRET dose-response, normalized signal (SI Fig 11) ([1]; Log[inhibitor] (M) -6.208): 2.83E-01 and 3.32E-01 and 2.85E-01 | normalized TR-FRET ligand displacement signal, dose-response replicates (SI Fig 6) ([1]; Log[inhibitor] (M) -6.509): 8.00E-01 and 8.38E-01 and 8.01E-01 | TR-FRET dose-response, normalized signal (SI Fig 11) ([1]; Log[inhibitor] (M) -6.509): 4.57E-01 and 4.64E-01 and 4.80E-01 | normalized TR-FRET ligand displacement signal, dose-response replicates (SI Fig 6) ([1]; Log[inhibitor] (M) -6.796): 9.06E-01 and 8.75E-01 and 9.05E-01 | TR-FRET dose-response, normalized signal (SI Fig 11) ([1]; Log[inhibitor] (M) -6.796): 6.22E-01 and 6.48E-01 and 6.15E-01 | normalized TR-FRET ligand displacement signal, dose-response replicates (SI Fig 6) ([1]; Log[inhibitor] (M) -7.108): 9.19E-01 and 1.02E+00 and 8.47E-01 | TR-FRET dose-response, normalized signal (SI Fig 11) ([1]; Log[inhibitor] (M) -7.108): 7.25E-01 and 7.35E-01 and 7.08E-01 | normalized TR-FRET ligand displacement signal, dose-response replicates (SI Fig 6) ([1]; Log[inhibitor] (M) -7.409): 8.93E-01 and 1.05E+00 and 9.99E-01 | TR-FRET dose-response, normalized signal (SI Fig 11) ([1]; Log[inhibitor] (M) -7.409): 8.57E-01 and 8.69E-01 and 8.79E-01 | normalized TR-FRET ligand displacement signal, dose-response replicates (SI Fig 6) ([1]; Log[inhibitor] (M) -7.710): 9.69E-01 (2×) and 9.96E-01 | TR-FRET dose-response, normalized signal (SI Fig 11) ([1]; Log[inhibitor] (M) -7.710): 9.21E-01 and 9.18E-01 and 9.07E-01 | normalized TR-FRET ligand displacement signal, dose-response replicates (SI Fig 6) ([1]; Log[inhibitor] (M) -8.000): 1.02E+00 and 9.51E-01 and 1.08E+00 | TR-FRET dose-response, normalized signal (SI Fig 11) ([1]; Log[inhibitor] (M) -8.000): 9.42E-01 and 9.60E-01 and 9.15E-01 | normalized TR-FRET ligand displacement signal, dose-response replicates (SI Fig 6) ([1]; Log[inhibitor] (M) -8.301): 8.99E-01 and 1.00E+00 and 9.75E-01 | TR-FRET dose-response, normalized signal (SI Fig 11) ([1]; Log[inhibitor] (M) -8.301): 9.32E-01 and 9.20E-01 and 9.46E-01 | normalized TR-FRET ligand displacement signal, dose-response replicates (SI Fig 6) ([1]; Log[inhibitor] (M) -8.602): 9.54E-01 and 1.01E+00 and 9.27E-01 | TR-FRET dose-response, normalized signal (SI Fig 11) ([1]; Log[inhibitor] (M) -8.602): 9.70E-01 and 9.45E-01 and 9.16E-01 | normalized TR-FRET ligand displacement signal, dose-response replicates (SI Fig 6) ([1]; Log[inhibitor] (M) -9.000): 9.66E-01 and 9.16E-01 and 8.85E-01 | TR-FRET dose-response, normalized signal (SI Fig 11) ([1]; Log[inhibitor] (M) -9.000): 9.54E-01 and 9.83E-01 and 9.88E-01 | normalized TR-FRET ligand displacement signal, dose-response replicates (SI Fig 6) ([1]; Log[inhibitor] (M) -9.301): 1.02E+00 (2×) and 1.01E+00 | TR-FRET dose-response, normalized signal (SI Fig 11) ([1]; Log[inhibitor] (M) -9.301): 9.40E-01 and 9.47E-01 and 9.44E-01 | ABS growth dose-response, normalized signal (Replicates 1-3) ([2]; Log[inhibitor] (M) -5.000): 0 | parasite growth, dose-response point ([2]; Log[inhibitor] (M) -5.000): 0 | ABS growth dose-response, normalized signal (Replicates 1-3) ([2]; Log[inhibitor] (M) -5.301): 0 | parasite growth, dose-response point ([2]; Log[inhibitor] (M) -5.301): 0 | ABS growth dose-response, normalized signal (Replicates 1-3) ([2]; Log[inhibitor] (M) -5.602): 0 | parasite growth, dose-response point ([2]; Log[inhibitor] (M) -5.602): 0 | ABS growth dose-response, normalized signal (Replicates 1-3) ([2]; Log[inhibitor] (M) -6.505): 8 | parasite growth, dose-response point ([2]; Log[inhibitor] (M) -6.505): 8 | EC50 ([2]; Plasmodium falciparum, DD2, SI Fig 16b, values on -log scale, read-out: ABS - Dd2-2D4 (converted)): 180 nM | parasite growth, dose-response point ([3]; Log[inhibitor] (M) -5): 6 and 7 (2×) | parasite growth, dose-response point ([3]; Log[inhibitor] (M) -5.408): 7 (2×) and 6 | parasite growth, dose-response point ([3]; Log[inhibitor] (M) -5.816): 6 (2×) and 7 | parasite growth, dose-response point ([3]; Log[inhibitor] (M) -6.222): 10 (2×) and 9 | parasite growth, dose-response point ([3]; Log[inhibitor] (M) -6.638): 75 and 76 and 81 | parasite growth, dose-response point ([3]; Log[inhibitor] (M) -7.046): 99 and 105 and 110 | parasite growth, dose-response point ([3]; Log[inhibitor] (M) -7.45): 87 and 99 and 100 | parasite growth, dose-response point ([3]; Log[inhibitor] (M) -7.854): 99 and 98 and 103 | parasite growth, dose-response point ([3]; Log[inhibitor] (M) -8.26): 100 and 101 and 104 | parasite growth, dose-response point ([3]; Log[inhibitor] (M) -8.699): 98 and 99 and 104 | parasite growth, dose-response point ([3]; Log[inhibitor] (M) -9): 101 and 97 and 100 | parasite growth, dose-response point ([3]; Log[inhibitor] (M) -9.488): 89 and 96 and 93 | dose-response signal (normalized), SI Fig 8 ([4]; Log[inhibitor] (M) -5.000): 4.05E-02 and -1.19E-01 and -1.91E-02 | dose-response signal (normalized), SI Fig 8 ([4]; Log[inhibitor] (M) -5.301): -7.53E-02 and -2.32E-02 and 3.73E-02 | dose-response signal (normalized), SI Fig 8 ([4]; Log[inhibitor] (M) -5.601): -7.78E-02 and -2.66E-03 and -2.25E-02 | dose-response signal (normalized), SI Fig 8 ([4]; Log[inhibitor] (M) -5.904): 1.67E-02 and 2.48E-02 and 1.76E-02 | dose-response signal (normalized), SI Fig 8 ([4]; Log[inhibitor] (M) -6.208): 8.20E-02 and 4.30E-02 and 6.02E-02 | dose-response signal (normalized), SI Fig 8 ([4]; Log[inhibitor] (M) -6.509): 7.49E-03 and -2.38E-02 and -1.11E-02 | dose-response signal (normalized), SI Fig 8 ([4]; Log[inhibitor] (M) -6.796): 4.86E-02 and 3.80E-02 and -1.10E-02 | dose-response signal (normalized), SI Fig 8 ([4]; Log[inhibitor] (M) -7.108): 4.17E-02 and 7.57E-02 and 3.79E-02 | dose-response signal (normalized), SI Fig 8 ([4]; Log[inhibitor] (M) -7.409): 2.11E-01 and 1.42E-01 and 1.90E-01 | dose-response signal (normalized), SI Fig 8 ([4]; Log[inhibitor] (M) -7.710): 4.47E-01 and 2.93E-01 and 4.00E-01 | dose-response signal (normalized), SI Fig 8 ([4]; Log[inhibitor] (M) -8.000): 7.09E-01 and 7.29E-01 and 6.69E-01 | dose-response signal (normalized), SI Fig 8 ([4]; Log[inhibitor] (M) -8.301): 8.70E-01 and 9.23E-01 and 9.80E-01 | dose-response signal (normalized), SI Fig 8 ([4]; Log[inhibitor] (M) -8.602): 1.09E+00 and 9.73E-01 and 1.05E+00 | dose-response signal (normalized), SI Fig 8 ([4]; Log[inhibitor] (M) -9.000): 9.29E-01 and 9.06E-01 and 9.66E-01 | dose-response signal (normalized), SI Fig 8 ([4]; Log[inhibitor] (M) -9.301): 8.49E-01 and 1.04E+00 and 9.72E-01 | PfcProRS -- best Kd ([4]; SI Fig 16a, values on -log scale): 8.466 | parasite growth, dose-response point ([5]; Log[inhibitor] (M) -5): 1 | parasite growth, dose-response point ([5]; Log[inhibitor] (M) -5.408): 1 | parasite growth, dose-response point ([5]; Log[inhibitor] (M) -5.816): 0 (2×) and 1 | parasite growth, dose-response point ([5]; Log[inhibitor] (M) -6.222): 16 and 18 and 17 | parasite growth, dose-response point ([5]; Log[inhibitor] (M) -6.638): 99 (2×) and 106 | parasite growth, dose-response point ([5]; Log[inhibitor] (M) -7.046): 103 (2×) and 109 | parasite growth, dose-response point ([5]; Log[inhibitor] (M) -7.45): 100 and 97 | parasite growth, dose-response point ([5]; Log[inhibitor] (M) -7.854): 100 (2×) and 97 | parasite growth, dose-response point ([5]; Log[inhibitor] (M) -8.26): 101 and 95 and 97 | parasite growth, dose-response point ([5]; Log[inhibitor] (M) -8.699): 99 and 98 (2×) | parasite growth, dose-response point ([5]; Log[inhibitor] (M) -9): 96 (2×) and 97 | parasite growth, dose-response point ([5]; Log[inhibitor] (M) -9.488): 98 and 95 and 102 | dose-response value, Replicates 1-3 (SI Fig 2e) ([5]; Log[inhibitor] (M) -5.000): 1 | dose-response value, Replicates 1-3 (SI Fig 2e) ([5]; Log[inhibitor] (M) -5.408): 1
